Laboratory results published in patent US20260317356A1, “SMALL MOLECULE MODULATORS OF OGG1” (AZKARRA THERAPEUTICS, INC., priority 2023, published 2026).

molecular target: hOGG1 (Homo sapiens, UniProt O15527); assay: Biochemical fluorescence assay to measure enzymatic activity of hOGG1 (OGG1/APEX IC50); set-up: Protein His-hOGG1 (12-323) was prepared; His (N); host or cells: E. coli; conditions: 1 nM OGG1+2 nM APEX+6 nM dsDNA (8-oxo-dG substrate); pH 7.5; RT 40 min; read-out: OGG1/APEX IC50
Experimental: Biological Example 1: Biochemical Assay to Measure Enzymatic Activity of hOGG1 (OGG1/APEX IC50)
The reported fluorescence-based assay (Donley et al ACS Chem Biol 2015; 10 (10), 2334-2343) was modified to include hAPE1/APEX1 protein. The oligonucleotide substrate with 8-oxo-dG lesion at X was prepared (LGC Biosearch, Petaluma, CA):
Protein His-hOGG1 (12-323) was prepared by Chempartner Corporation via E. coliexpression and purification by Ni-NTA and S200 column to afford 95% purity by SDS-PAGE and SEC-HPLC analysis and hAPE1/APEX1 was purchased (SinoBiological). The assay was run in 384-well plates following the general procedure: (1) compound dilution; (2) addition of hOGG1/APEX1 to compound wells; (3) addition of DNA substrate to compound wells; (4) read Ex520/Em600 (TAMRA) fluorescence signal after 40 minutes; (5) calculate % inhibition/compound concentration; (6) calculate dose-response curve and IC50 value.
• (1) 20 mM of compound solution was prepared in DMSO; • (2) Compounds were diluted to 10 mM in DMSO in ECHO Source plate (Labcyte PP-0200), by mixing […] DMSO; • (3) 4× dilution of compounds, for 10 points, by mixing […] DMSO; and • (4) Dispensed 150 nL compounds to assay plate (Corning 3573) in column 3-22. Dispensed 150 nL DMSO to Min and Max control wells in column 1-2 and column 23-24.
• (1) Assay buffer was prepared (20 mM Tris pH 7.5, 100 mM KCl, 0.1% BSA, 0.01% Tween). • (2) […] buffer was added to Min control wells (Column 1-2). • (3) Enzyme was diluted to 2× with buffer (2 nM OGG1+4 nM APEX1). Dispensed […] (except Min control wells). Shake at 500 rpm at RT for 20 min. • (4) DNA substrate diluted to 2× with buffer (12 nM). Dispensed […]. Final concentration: 1 nM OGG1+2 nM APEX+6 nM dsDNA. Shake at RT for 40 min. • (5) Ex520/Em600 (TAMRA) was read.
• (1) Calculated respective mean of Max and Min control wells. • (2) Converted data to percentage inhibition.
Inhibition (%)=(Max mean−value)/(Max mean−Min mean)×100% • (3) Calculated sigmoidal curve (3-parameter) and IC50 (using GraphPad Prism software).

Sequence of hOGG1 (O15527 12-323): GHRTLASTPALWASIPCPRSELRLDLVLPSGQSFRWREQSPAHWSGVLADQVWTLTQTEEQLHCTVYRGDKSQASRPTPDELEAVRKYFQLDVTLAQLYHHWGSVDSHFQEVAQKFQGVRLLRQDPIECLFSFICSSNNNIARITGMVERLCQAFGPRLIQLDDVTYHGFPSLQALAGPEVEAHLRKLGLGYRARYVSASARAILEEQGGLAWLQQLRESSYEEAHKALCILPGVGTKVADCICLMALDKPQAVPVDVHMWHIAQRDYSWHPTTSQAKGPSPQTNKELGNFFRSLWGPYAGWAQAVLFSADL

First: COc1cc(NC(=O)[C@H]2CC[C@@H](N3Cc4c(Br)cc(NC5CNC5)cc4C3=O)CC2)ccc1C [Example 180, (1s,4s)-4-(6-(Azetidin-3-ylamino)-4-bromo-1-oxoisoindolin-2-yl)-N-(3-methoxy-4-methylphenyl)cyclohexanecarboxamide]
Second: COc1cc(NC(=O)[C@H]2CC[C@@H](N3Cc4c(Br)cc(NCC(C)O)cc4C3=O)CC2)ccc1C (stereo partly shown) [Example 179, (1s,4s)-4-(4-Bromo-6-(2-hydroxypropylamino)-1-oxoisoindolin-2-yl)-N-(3-methoxy-4-methylphenyl)cyclohexanecarboxamide]
The IC50 of the first is lower: less than 0.1 µM for the first, 0.1 to 1 µM for the second. The first is the more potent here.

First: COc1cc(NC(=O)[C@H]2[C@@H]3C[C@H](N4Cc5c(Br)cccc5C4=O)C[C@@H]32)ccc1C (single isomer, unassigned) [Example 268]
Second: COc1cc(NC(=O)[C@@H]2[C@@H]3C[C@@H](N4Cc5c(Br)cccc5C4=O)C[C@@H]32)ccc1C [Example 213, (1R,5S,6s)-3-(4-Bromo-1-oxoisoindolin-2-yl)-N-(3-methoxy-4-methylphenyl)bicyclo[3.1.0]hexane-6-carboxamide]
The IC50 of the first is lower: 0.1 to 1 µM for the first, 1 to 10 µM for the second.

`COc1cc(NC(=O)[C@H]2CC[C@@H](N3Cc4c(C)cc(C5COC5)cc4NC3=O)CC2)ccc1C` [Example 33, (1s,4s)-N-(3-Methoxy-4-methylphenyl)-4-(5-methyl-7-(oxetan-3-yl)-2-oxo-1,2-dihydroquinazolin-3(4H)-yl)cyclohexanecarboxamide] and `COc1cc(NC(=O)[C@H]2CC[C@@H](N3Cc4c(C)cc(C#N)cc4NC3=O)CC2)ccc1C` [Example 31, (1s,4s)-4-(7-Cyano-5-methyl-2-oxo-1,2-dihydroquinazolin-3(4H)-yl)-N-(3-methoxy-4-methylphenyl)cyclohexanecarboxamide] cannot be ordered by IC50: less than 0.1 µM for the first, less than 0.1 µM for the second.

Compared with `COc1cc(NC(=O)[C@H]2CC[C@@H](N3Cc4c(C=O)cccc4C3=O)CC2)ccc1C` [Example 162, (1s,4s)-4-(4-Formyl-1-oxoisoindolin-2-yl)-N-(3-methoxy-4-methylphenyl)cyclohexanecarboxamide], `COc1cc(NC(=O)[C@H]2CC[C@@H](N3Cc4c(Br)cccc4C3=O)CC2)ccc1C` [Example 150, (1s,4s)-4-(4-Bromo-1-oxoisoindolin-2-yl)-N-(3-methoxy-4-methylphenyl)cyclohexanecarboxamide] is lower in IC50: 1 to 10 µM for the first, 0.1 to 1 µM for the second. The second is the more potent here.

`COc1cc(NC(=O)[C@H]2CC[C@@H](N3Cc4c(C)cc(C(=O)NCCN(C)C)cc4NC3=O)CC2)ccc1C` [Example 84, N-(2-(dimethylamino)ethyl)-3-((1s,4s)-4-(3-methoxy-4-methylphenylcarbamoyl)cyclohexyl)-5-methyl-2-oxo-1,2,3,4-tetrahydroquinazoline-7-carboxamide] and `COc1cc(NC(=O)[C@H]2CC[C@@H](N3Cc4c(C)cc(NCCN(C)C)cc4NC3=O)CC2)ccc1C` [Example 96, (1s,4s)-4-(7-(2-(dimethylamino)ethylamino)-5-methyl-2-oxo-1,2-dihydroquinazolin-3(4H)-yl)-N-(3-methoxy-4-methylphenyl)cyclohexanecarboxamide] cannot be ordered by IC50: less than 0.1 µM for the first, less than 0.1 µM for the second.

Compared with `COc1ccc(NC(=O)[C@H]2CC[C@@H](N3Cc4c(C)cccc4C3=O)CC2)cn1` [Example 249, (1s,4s)-N-(6-Methoxypyridin-3-yl)-4-(4-methyl-1-oxoisoindolin-2-yl)cyclohexanecarboxamide], `CCc1ccc(NC(=O)[C@H]2CC[C@@H](N3Cc4c(C)cccc4C3=O)CC2)cc1OC` [Example 123, (1s,4s)-N-(4-Ethyl-3-methoxyphenyl)-4-(4-methyl-1-oxoisoindolin-2-yl)cyclohexane-1-carboxamide] is lower in IC50: 1 to 10 µM for the first, 0.1 to 1 µM for the second. The second is the more potent here.

First: COc1cc(NC(=O)[C@H]2CC[C@@H](N3Cc4c(C)cc(OCC5(F)CNC5)cc4C3=O)CC2)ccc1C [Example 141, (1s,4s)-4-(6-((3-Fluoroazetidin-3-yl)methoxy)-4-methyl-1-oxoisoindolin-2-yl)-N-(3-methoxy-4-methylphenyl)cyclohexanecarboxamide]
Second: COc1cc(NC(=O)[C@H]2CC[C@@H](N3Cc4c(C)cc(CO)cc4C3=O)CC2)ccc1C [Example 214, (1s,4s)-4-(6-(Hydroxymethyl)-4-methyl-1-oxoisoindolin-2-yl)-N-(3-methoxy-4-methylphenyl)cyclohexanecarboxamide]
The IC50 of the first is lower: less than 0.1 µM for the first, 0.1 to 1 µM for the second.

`COc1cc(NC(=O)[C@H]2CC[C@@H](N3Cc4c(cccc4C(F)F)C3=O)CC2)ccc1C` [Example 172, (1s,4s)-4-(4-(Difluoromethyl)-1-oxoisoindolin-2-yl)-N-(3-methoxy-4-methylphenyl)cyclohexanecarboxamide] and `COc1cc(NC(=O)[C@H]2CC[C@@H](N3Cc4c(CF)cccc4C3=O)CC2)ccc1C` [Example 166, (1s,4s)-4-(4-(Fluoromethyl)-1-oxoisoindolin-2-yl)-N-(3-methoxy-4-methylphenyl)cyclohexanecarboxamide] fall in the same range of IC50: 1 to 10 µM for the first, 1 to 10 µM for the second.

First: COc1cc(NC(=O)C2C[C@@H]3[C@H](C2)[C@H]3N2Cc3c(Br)cccc3C2=O)ccc1C (single isomer, unassigned) [Example 247]
Second: COc1cc(NC(=O)[C@H]2CC[C@@H](N3Cc4ccccc4C3=O)CC2)ccc1C [Example 148, (1s,4s)-N-(3-Methoxy-4-methylphenyl)-4-(1-oxoisoindolin-2-yl)cyclohexanecarboxamide]
The IC50 of the first is higher: greater than 10 µM for the first, 1 to 10 µM for the second. The second is the more potent here.

`COc1ccc(NC(=O)[C@]2(C)CC[C@H](N3Cc4c(C)cccc4NC3=O)CC2)cc1C` (single isomer, unassigned) [Example 105, (1s,4s)-N-(4-methoxy-3-methylphenyl)-1-methyl-4-(5-methyl-2-oxo-1,2-dihydroquinazolin-3(4H)-yl)cyclohexanecarboxamide] and `COc1cc(NC(=O)[C@H]2CC[C@@H](N3Cc4c(C)cccc4NC3=O)CC2)ccc1C` [Example 69, (1s,4s)-N-(3-methoxy-4-methylphenyl)-4-(5-methyl-2-oxo-1,2-dihydroquinazolin-3(4H)-yl)cyclohexanecarboxamide] cannot be ordered by IC50: less than 0.1 µM for the first, less than 0.1 µM for the second.

First: Cc1cccc2c1CN([C@H]1CC[C@@H](C(=O)Nc3cc4ccccc4[nH]3)CC1)C(=O)N2 [Example 112, (1s,4s)-N-(1H-indol-2-yl)-4-(5-methyl-2-oxo-1,2-dihydroquinazolin-3(4H)-yl)cyclohexanecarboxamide]
Second: Cc1cccc2c1CN([C@H]1CC[C@@H](C(=O)Nc3ccc4cc[nH]c4c3)CC1)C(=O)N2 [Example 113, (1s,4s)-N-(1H-indol-6-yl)-4-(5-methyl-2-oxo-1,2-dihydroquinazolin-3(4H)-yl)cyclohexanecarboxamide]
The IC50 of the first is lower: less than 0.1 µM for the first, 0.1 to 1 µM for the second.

First: CCc1ccc(NC(=O)[C@H]2CC[C@@H](N3Cc4c(C)cccc4NC3=O)CC2)cc1C#N [Example 94, (1s,4s)-N-(3-cyano-4-ethylphenyl)-4-(5-methyl-2-oxo-1,2-dihydroquinazolin-3(4H)-yl)cyclohexanecarboxamide]
Second: Cc1cccc2c1CN([C@H]1CC[C@@H](C(=O)Nc3cc[nH]c(=O)c3)CC1)C2=O [Example 250, (1s,4s)-4-(4-methyl-1-oxoisoindolin-2-yl)-N-(2-oxo-1,2-dihydropyridin-4-yl)cyclohexanecarboxamide]
The IC50 of the first is lower: 0.1 to 1 µM for the first, greater than 10 µM for the second.

First: COc1cc(NC(=O)N2CCC(N3Cc4ccccc4NC3=O)CC2)ccc1C [Example 64, N-(3-methoxy-4-methylphenyl)-4-(2-oxo-1,2-dihydroquinazolin-3(4H)-yl)piperidine-1-carboxamide]
Second: O=C(Nc1ccc(I)cc1)N1CCC(N2Cc3c(Br)cccc3C2=O)CC1 [Example 182, 4-(4-Bromo-1-oxoisoindolin-2-yl)-N-(4-iodophenyl) piperidine-1-carboxamide]
The IC50 of the first is lower: 0.1 to 1 µM for the first, greater than 10 µM for the second.

First: COc1cc(NC(=O)[C@H]2CC[C@@H](N3Cc4c(Br)cc(NCCN5CCOCC5)cc4C3=O)CC2)ccc1C [Example 203, (1s,4s)-4-(4-Bromo-6-(2-morpholinoethylamino)-1-oxoisoindolin-2-yl)-N-(3-methoxy-4-methylphenyl)cyclohexanecarboxamide]
Second: Cn1c(NC(=O)[C@H]2CC[C@@H](N3Cc4c(Br)cccc4C3=O)CC2)nc2ccccc21 [Example 190, (1s,4s)-4-(4-Bromo-1-oxoisoindolin-2-yl)-N-(1-methyl-1H-benzo[d]imidazol-2-yl)cyclohexanecarboxamide]
The IC50 of the first is lower: 0.1 to 1 µM for the first, 1 to 10 µM for the second. The first is the more potent here.
